Test results taken from patent US7211584B2, “5-HT7 receptor ligands” (Laboratorios del Dr. Esteve, S.A., priority 2004, dated 2007).
pIC50: −log10 of the molar value. Counter-ions that a name gives are not always drawn.

Target: T1, Human Serotonin Receptor, Subtype 7 (h5HT7) (Homo sapiens, UniProt P34969)
T1 construct: purchased PerkinElmer 6120512; host or cells: CHO cells (membranes)
Experiment: Radioligand binding, cloned human serotonin receptor subtype 7 (h5HT7) expressed in CHO cells, [125I]LSD
Conditions: h5HT7 in CHO cells on Flashplate; [125I]LSD 0.82 nM; room temperature 240 minutes; triplicate; read-out: 5-HT7 IC-50
Experimental: Radioligand binding assays were performed using the Cloned Human Serotonin Receptor, Subtype 7 (h5HT7), expressed in CHO cells, coated on Flashplate (Basic FlashPlate Cat.: SMP200) from PerkinElmer (Cat.: 6120512). The protocol assay was essentially the recommended protocol in the Technical Data Sheet by PerkinEmer Life and Analytical Sciences. The Mass membrane protein/well was typically 12 μg and the Receptor/well was about 9–10 fmoles. The Flashplate were let equilibrate at room temperature for one hour before the addition of the components of the assay mixture. The binding buffer was: 50 mM Tris-HCl, pH 7.4, containing 10 mM MgCl2, 0.5 mM EDTA and 0.5% BSA. The radioligand was [^125I]LSD at a final concentration of 0.82 nM. Nonspecific binding was determined with 50 μM of Clozapine. The assay volume was 25 μl. TopSeal-A were applied onto Flashplate microplates and they were incubated at room temperature for 240 minutes in darkness. The radioactivity were quantified by liquid scintillation spectrophotometry (Wallac 1450 Microbeta Trilux) with a count delay of 4 minutes prior to counting and a counting time of 30 seconds per well. Competition binding data were analyzed by using the LIGAND program (Munson and Rodbard, LIGAND: A versatile, computerized approach for characterization of ligand-binding systems. Anal. Biochem. 107: 220–239, 1980) and assays were performed in triplicate determinations for each point.

T1 sequence (P34969 whole entry): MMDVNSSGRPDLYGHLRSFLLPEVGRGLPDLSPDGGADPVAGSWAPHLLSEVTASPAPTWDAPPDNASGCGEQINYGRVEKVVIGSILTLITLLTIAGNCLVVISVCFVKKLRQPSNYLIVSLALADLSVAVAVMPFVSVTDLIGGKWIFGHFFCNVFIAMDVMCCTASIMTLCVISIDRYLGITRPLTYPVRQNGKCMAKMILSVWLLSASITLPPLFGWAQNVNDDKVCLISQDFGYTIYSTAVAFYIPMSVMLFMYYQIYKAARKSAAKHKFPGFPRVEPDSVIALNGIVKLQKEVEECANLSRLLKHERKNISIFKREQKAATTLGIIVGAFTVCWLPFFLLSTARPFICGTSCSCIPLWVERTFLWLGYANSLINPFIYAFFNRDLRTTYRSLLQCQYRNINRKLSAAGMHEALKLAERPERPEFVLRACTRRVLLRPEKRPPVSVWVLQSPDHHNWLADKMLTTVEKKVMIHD

pIC50 | Compound
6.95 | COc1cc(C)c(S(=O)(=O)NCCCN2CCc3ccccc3C2)c(C)c1C [Compound 40, N-[3-(3,4-Dihydro-1H-isoquinolin-2-yl)-propyl]-4-methoxy-2,3,6-trimethyl-benzenesulfonamidehydrochloride]
6.42 | O=S(=O)(NCCCN1CCc2ccccc2C1)c1cccc2ccccc12 [Compound 33, Naphthalene-1-sulfonic acid[3-(3,4-dihydro-1H-isoquinolin-2-yl)-propyl]-amide hydrochloride]
6.87 | O=S(=O)(NCCCN1CCc2ccccc2C1)c1ccccc1 [Compound 35, N-[3-(3,4-Dihydro-1H-isoquinolin-2-yl)-propyl]-benzenesulfonamidehydrochloride]

Compound | pIC50
COc1cc2c(cc1OC)CN(CCCNS(=O)(=O)c1cc(Cl)c(F)cc1F)CC2 [Compound 48, 5-Chloro-N-[3-(6,7-dimethoxy-3,4-dihydro-1H-isoquinolin-2-yl)-propyl]-2,4-difluoro-benzenesulfonamide] | 7.19
COc1cc2c(cc1OC)CN(CCCNS(=O)(=O)c1cc(Cl)ccc1Cl)CC2 [Compound 43, 2,5-Dichloro-N-[3-(6,7-dimethoxy-3,4-dihydro-1H-isoquinolin-2-yl)-propyl]-benzenesulfonamidehydrochloride] | 7.05
